# Results as given in DBAASP.
# Values joined by “and” are separate entries in the source; they are usually repeats but may differ in a detail not shown here. Equal values may be shown once.
# Experiments:
# Test in all cases: ≥ marks a high value that may be exact or a test limit, other limits are often not marked, values filed in µg/mL are converted to µM
# [1] = test system: Staphylococcus aureus ATCC 25923
# [2] = test system: Aggregatibacter actinomycetemcomitans ATCC 29522
# [3] = test system: Escherichia coli ATCC 25922
# [4] = test system: Streptococcus sanguinis ATCC 10556
# Vibrio fluvialis = test system: Vibrio fluvialis
# Escherichia coli = test system: Escherichia coli
# Staphylococcus aureus = test system: Staphylococcus aureus
# Vibrio parahaemolyticus = test system: Vibrio parahaemolyticus
# Streptococcus pyogenes = test system: Streptococcus pyogenes
# Aeromonas hydrophila = test system: Aeromonas hydrophila
# Vibrio alginolyticus = test system: Vibrio alginolyticus
# Escherichia coli SBS 363 = test system: Escherichia coli SBS 363
# Micrococcus luteus A270 = test system: Micrococcus luteus A270
# Candida albicans MDM8 = test system: Candida albicans MDM8
# [5] = test system: Fusarium solani MTCC 10158
# [6] = test system: Candida albicans ATCC 10231
# [7] = test system: Saccharomyces cerevisiae SZMC 0644
# Candida krusei CBS 573 = test system: Candida krusei CBS 573
# [8] = test system: Candida parapsilosis CBS 604
structure (smiles),measurement,setting,value
CC[C@H](C)[C@H](NC(C)=O)C(=O)N[C@@H](Cc1c[nH]c2ccccc12)C(=O)N[C@@H](CC(C)C)C(=O)N[C@H](C(=O)N[C@@H](C)C(=O)N[C@@H](CC(C)C)C(=O)N[C@@H](CCCCN)C(=O)N[C@@H](Cc1ccccc1)C(=O)N[C@@H](CC(C)C)C(=O)NCC(=O)N[C@@H](CCCCN)C(=O)N[C@@H](CC(N)=O)C(=O)N[C@@H](CC(C)C)C(=O)NCC(=O)N[C@@H](CCCCN)C(=O)N[C@@H](CC(C)C)C(=O)N[C@@H](C)C(=O)N[C@@H](CCCCN)C(=O)N[C@@H](CCC(N)=O)C(=O)N[C@@H](CCC(N)=O)C(=O)N[C@@H](CC(C)C)C(=O)N[C@@H](C)C(=O)N[C@@H](CCCCN)C(=O)N[C@@H](CC(C)C)C(N)=O)[C@@H](C)O [IWLTALKFLGKNLGKLAKQQLAKL],MIC,[1],2.85 µM
same,MIC,[2],11.4 µM
same,MIC,[3],0.71 µM
same,MIC,[4],5.7 µM
CC[C@H](C)[C@H](NC(=O)[C@H](C)NC(=O)[C@H](CC(=O)O)NC(=O)[C@H](CCCN=C(N)N)NC(=O)[C@@H](NC(=O)[C@@H](N)CCCN=C(N)N)[C@@H](C)CC)C(=O)N[C@@H](C)C(=O)N[C@@H](Cc1cnc[nH]1)C(=O)NCC(=O)N[C@@H](Cc1ccc(O)cc1)C(=O)N[C@H](C(=O)N[C@H](C(=O)N[C@@H](CC(=O)O)C(=O)N[C@@H](CCCCN)C(=O)N[C@H](C(=O)O)C(C)C)C(C)C)[C@@H](C)CC [RIRDAIAHGYIVDKV],MIC,Vibrio fluvialis,≥ 72.4 µM
same,MIC,Escherichia coli,> 145 µM
same,MIC,Staphylococcus aureus,> 145 µM
same,MIC,Vibrio parahaemolyticus,≥ 145 µM
same,MIC,Streptococcus pyogenes,≥ 72.4 µM
same,MIC,Aeromonas hydrophila,18.1 µM
same,MIC,Vibrio alginolyticus,18.1 µM
CC[C@H](C)[C@H](NC(=O)[C@H](CC(C)C)NC(=O)[C@@H]1CCCN1C(=O)[C@H](CC(C)C)NC(=O)[C@H](CC(C)C)NC(=O)[C@@H](N)CO)C(=O)N[C@@H](CCCN=C(N)N)C(=O)N[C@@H](CCCCN)C(=O)N[C@@H](CC(C)C)C(=O)N[C@H](C(=O)N[C@H](C(N)=O)[C@@H](C)O)[C@@H](C)CC [SLLPLIRKLIT],MIC,Escherichia coli SBS 363,3.12 µM
same,MIC,Micrococcus luteus A270,1.56 µM
same,MIC,Candida albicans MDM8,1.56 µM
NCCCC[C@H](NC(=O)[C@H](CCCCN)NC(=O)[C@H](CCCN=C(N)N)NC(=O)[C@H](CCCN=C(N)N)NC(=O)[C@H](CCCN=C(N)N)NC(=O)[C@H](CCCN=C(N)N)NC(=O)[C@H](CCC(N)=O)NC(=O)[C@H](CCCN=C(N)N)NC(=O)[C@H](CCCN=C(N)N)NC(=O)[C@H](CCCCN)NC(=O)[C@H](CCCCN)NC(=O)[C@@H](N)CCCN=C(N)N)C(=O)N[C@@H](CCCN=C(N)N)C(=O)N[C@@H](CCCN=C(N)N)C(=O)N[C@@H](CCC(N)=O)C(=O)N[C@@H](CCCN=C(N)N)C(=O)N[C@@H](CCCN=C(N)N)C(=O)N[C@@H](CCCN=C(N)N)C(=O)O [RKKRRQRRRRKKRRQRRR],MIC,[5],7.07 µM and 21.2 µM
CC[C@H](C)[C@H](N)C(=O)N[C@@H](C)C(=O)NCC(=O)N[C@@H](C)C(=O)N[C@@H](Cc1cnc[nH]1)C(=O)N[C@@H](CCCCN)C(=O)N[C@H]1CSSC[C@@H](C(=O)N[C@@H](CC(N)=O)C(=O)N[C@@H](CO)C(=O)N2CCC[C@H]2C(=O)N[C@@H](CC(N)=O)C(=O)O)NC(=O)[C@@H]2CSSC[C@H](NC(=O)[C@@H]3CCCN3C(=O)[C@H](CCCCN)NC1=O)C(=O)N[C@@H](Cc1ccc(O)cc1)C(=O)NCC(=O)N[C@@H](Cc1ccc(O)cc1)C(=O)N[C@@H](CCCCN)C(=O)N[C@@H]([C@@H](C)O)C(=O)N[C@@H](CC(N)=O)C(=O)N[C@@H](CO)C(=O)N2 [IAGAHKCKPCYGYKTNSCCNSPN],MIC,[6],20.3 µM
same,MIC,[7],20.3 µM
same,MIC,Candida krusei CBS 573,20.3 µM
same,MIC,[8],20.3 µM
